Results on nine compounds are retold here after US8809333B2, “Imidazole, pyrazole, and triazole derivatives useful as antibacterial agents” (Pfizer Inc., priority 2011, dated 2014).

The test system of test [1] is Acinetobacter baumannii/haemolyticus: Multidrug-resistant clinical isolate (AB-3167). Nature of the test: MIC determination (CLSI), AB-3167. The format is cell-based. The following applies: Acinetobacter baumannii/haemolyticus multidrug-resistant clinical isolate; overnight incubation; lower of duplicate values; read-out: AB-3167 (MIC). In outline:
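Broth dilution MIC per CLSI M7-A8, 2-fold concentration steps, overnight incubation, visual read of lowest concentration inhibiting growth versus drug-free control. Tested in duplicate; lower value reported if within 2-fold, otherwise repeated; QC organisms and reference drugs required within range.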

Test [2] has as its target T1, Pseudomonas aeruginosa LpxC enzyme (Pseudomonas aeruginosa, UniProt P47205).
T1 construct: made in house; host or cells: E. coli
T1 sequence (P47205 1-303): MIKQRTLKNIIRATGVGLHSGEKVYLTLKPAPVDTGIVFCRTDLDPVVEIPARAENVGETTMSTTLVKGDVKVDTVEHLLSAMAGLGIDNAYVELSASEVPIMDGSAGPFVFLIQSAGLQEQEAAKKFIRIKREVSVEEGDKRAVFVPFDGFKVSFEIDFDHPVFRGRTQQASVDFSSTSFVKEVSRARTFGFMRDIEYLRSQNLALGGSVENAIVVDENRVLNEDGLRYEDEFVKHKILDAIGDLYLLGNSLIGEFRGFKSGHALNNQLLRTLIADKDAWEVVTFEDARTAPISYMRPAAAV
The test can be described thus: IC50 assay, LpxC enzyme from P. aeruginosa (BioTrove RapidFire mass spectrometry). The format is biochemical. The following applies: P. aeruginosa LpxC enzyme 0.1 nM, 25° C., 1 hour, pH 8.0; read-out: PA: IC50. A digest of the protocol:
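P. aeruginosa LpxC reaction run 1 hour, stopped with 1 N HCl, and substrate-to-product conversion quantified by RapidFire mass spectrometry. IC50 calculated from percent conversion using a no-enzyme control.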

In test [3] the test system is Klebsiella pneumoniae: Ciprofloxacin-resistant isolate, expresses ESBL, clinical isolate (KP-3700). Nature of the test: MIC determination (CLSI), KP-3700. Format: cell-based. As to conditions: overnight incubation, lower of duplicate values. In outline: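 Broth dilution MIC per CLSI M7-A8 against the ciprofloxacin-resistant, ESBL-expressing clinical isolate, 2-fold concentration steps, overnight incubation, visual read of lowest growth-inhibiting concentration. Tested in duplicate; lower value reported when within 2-fold; control organisms and reference compounds required within range.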

Test [4] relates to Escherichia coli EC-1: VOGEL, mouse virulent. The test can be described thus: MIC determination (CLSI), EC-1. The format is cell-based. The following applies: Escherichia coli, read-out: EC-1 (MIC). In outline: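 Broth dilution MIC per CLSI M7-A8, with 2-fold compound dilutions incubated overnight with a standard inoculum. MIC is the lowest concentration visibly inhibiting growth versus drug-free control; tested in duplicate, reporting the lower value when within 2-fold, with QC organisms and reference compounds required in range.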

The test system of test [5] is Pseudomonas aeruginosa UI-18: Wild-type (PA-7). Nature of the test: MIC determination (CLSI), PA-7. Format: cell-based. As to conditions: Pseudomonas aeruginosa UI-18 wild-type; overnight incubation; lower of duplicate values; read-out: PA-7 (MIC). In outline:
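Broth dilution MIC per CLSI M7-A8, using 2-fold compound dilutions incubated overnight; MIC is the lowest concentration with no visible growth versus the drug-free control. Run in duplicate, lower value reported when within 2-fold. Control organisms and reference compounds were included for QC.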

Molecules are shown by their SMILES. Values after ≈ are worked out from the molar mass of the structure shown.

Turning to `CC(CCn1cc(-c2ccc3c(c2)OCCO3)cn1)(C(=O)NO)S(C)(=O)=O` (stereo not drawn) [Example 63, 4-[4-(2,3-dihydro-1,4-benzodioxin-6-yl)-1H-pyrazol-1-yl]-N-hydroxy-2-methyl-2-(methylsulfonyl)butanamide], the minimum inhibitory concentration (MIC) in test [1] is > 64 µg/mL; in test [4] it was > 64 µg/mL; in test [5] it was 4 µg/mL (≈ 10.1 µM). For the same compound, the IC50 in test [2] came to 6.75 nM. Moreover, in test [3], the “KP-3700 (MIC)” value was >64.0 µg/mL.

Take `CC(CCn1cc(-c2ccc(C#N)c(Cl)c2)cn1)(C(=O)NO)S(C)(=O)=O` (stereo not drawn) [Example 64, 4-[4-(3-chloro-4-cyanophenyl)-1H-pyrazol-1-yl]-N-hydroxy-2-methyl-2-(methylsulfonyl)butanamide]: the values for the MIC in test [1], in test [4] and in test [5] were > 64 µg/mL, 64 µg/mL (≈ 161 µM) and 4 µg/mL (≈ 10.1 µM), respectively. For the same compound, in test [2], the IC50 came out at 0.62 nM. In addition, the “KP-3700 (MIC)” value in test [3] is >64.0 µg/mL.

Turning to `COc1ccc(-c2cnn(CCC(C)(C(=O)NO)S(C)(=O)=O)c2)cc1OC` (stereo not drawn) [Example 65, 4-[4-(3,4-dimethoxyphenyl)-1H-pyrazol-1-yl]-N-hydroxy-2-methyl-2-(methylsulfonyl)butanamide], the MIC in test [1], in test [4] and in test [5] was > 64 µg/mL throughout. The half-maximal inhibitory concentration (IC50) in test [2] amounted to 93.2 nM. Besides, in test [3], the “KP-3700 (MIC)” value is >64.0 µg/mL.

As to `CC(CCn1cc(-c2ccc(C3(C#N)CC3)cc2)cn1)(C(=O)NO)S(C)(=O)=O` (stereo not drawn) [Example 66, 4-{4-[4-(1-cyanocyclopropyl)phenyl]-1H-pyrazol-1-yl}-N-hydroxy-2-methyl-2-(methylsulfonyl)butanamide], the MIC was > 64 µg/mL in test [1], > 64 µg/mL in test [4] and 16 µg/mL (≈ 39.8 µM) in test [5]. The IC50 in test [2] turned out to be 2.83 nM. Besides, the “KP-3700 (MIC)” value in test [3] was >64.0 µg/mL.

As to `Cc1ccc2cc(-c3cnn(CCC(C)(C(=O)NO)S(C)(=O)=O)c3)ccc2n1` (stereo not drawn) [Example 67, N-hydroxy-2-methyl-4-[4-(2-methylquinolin-6-yl)-1H-pyrazol-1-yl]-2-(methylsulfonyl)butanamide], the MIC is > 64 µg/mL in test [1], > 64 µg/mL in test [4] and 32 µg/mL (≈ 79.5 µM) in test [5]. In addition, the IC50 in test [2] was 12.1 nM. The “KP-3700 (MIC)” value in test [3] is >64.0 µg/mL.

As to `CC(CCn1cc(-c2cccc(OC(F)F)c2)cn1)(C(=O)NO)S(C)(=O)=O` (stereo not drawn) [Example 68, 4-{4-[3-(difluoromethoxy)phenyl]-1H-pyrazol-1-yl}-N-hydroxy-2-methyl-2-(methylsulfonyl)butanamide], the MIC is > 64 µg/mL in test [1], 64 µg/mL (≈ 159 µM) in test [4] and 8 µg/mL (≈ 19.8 µM) in test [5]. For the same compound, the half-inhibitory concentration (IC50) in test [2] was 2.1 nM. In addition, in test [3], the “KP-3700 (MIC)” value is >64.0 µg/mL.

As to `CC(CCn1cc(-c2ccc3cnc(N)cc3c2)cn1)(C(=O)NO)S(C)(=O)=O` (stereo not drawn) [Example 69, 4-[4-(3-aminoisoquinolin-6-yl)-1H-pyrazol-1-yl]-N-hydroxy-2-methyl-2-(methylsulfonyl)butanamide], the MIC in test [1], in test [4] and in test [5] was > 64 µg/mL in each case. In addition, the IC50 in test [2] stood at 2.57 nM. The “KP-3700 (MIC)” value in test [3] is >64.0 µg/mL.

In the case of `CC(CCn1cc(-c2ccc(-c3cc[nH]n3)cc2)cn1)(C(=O)NO)S(C)(=O)=O` (stereo not drawn) [Example 70, N-hydroxy-2-methyl-2-(methylsulfonyl)-4-{4-[4-(1H-pyrazol-3-yl)phenyl]-1H-pyrazol-1-yl}butanamide], the MIC in test [1] is > 64 µg/mL; in test [4] it was 64 µg/mL (≈ 159 µM); in test [5], 32 µg/mL (≈ 79.3 µM). Further, in test [2], the IC50 amounted to 4.11 nM. Also, the “KP-3700 (MIC)” value in test [3] is >64.0 µg/mL.

With `CC(CCn1cc(-c2cccc(-c3cc[nH]n3)c2)cn1)(C(=O)NO)S(C)(=O)=O` (stereo not drawn) [Example 71, N-hydroxy-2-methyl-2-(methylsulfonyl)-4-{4-[3-(1H-pyrazol-3-yl)phenyl]-1H-pyrazol-1-yl}butanamide], the MIC in test [1], in test [4] and in test [5] was > 64 µg/mL each time. Moreover, in test [2], the IC50 was 5.12 nM. In addition, the “KP-3700 (MIC)” value in test [3] was >64.0 µg/mL.
